Measurements as given in ChEMBL document CHEMBL1127612, “Maleimidoethyl 3-(tri-n-butylstannyl)hippurate: a useful radioiodination reagent for protein radiopharmaceuticals to enhance target selective radioactivity localization” (J Med Chem, 1994).

Experiments:
Details in all cases: in vivo
Mus musculus [1] = experiment: Tested for biodistribution of radioactivity after 3h of intravenous injection in mice spleen; assay type: ADME, organism-based
Mus musculus [2] = experiment: Tested for biodistribution of radioactivity after 48 hr of intravenous injection in mice stomach; assay type: ADME, organism-based
Mus musculus [3] = experiment: Tested for biodistribution of radioactivity after 24 hr of intravenous injection in mice stomach; assay type: ADME, organism-based
Mus musculus [4] = experiment: Tested for biodistribution of radioactivity after 3h of intravenous injection in mice lung; assay type: ADME, organism-based
Mus musculus [5] = experiment: Tested for biodistribution of radioactivity after 3h of intravenous injection in mice liver; assay type: ADME, organism-based
Mus musculus [6] = experiment: Tested for biodistribution of radioactivity after 1 hr of intravenous injection in mice neck; assay type: ADME, organism-based
Mus musculus [7] = experiment: Tested for biodistribution of radioactivity after 3h of intravenous injection in mice stomach; assay type: ADME, organism-based
Mus musculus [8] = experiment: Tested for biodistribution of radioactivity after 6 hr of intravenous injection in mice blood; assay type: ADME, organism-based
Mus musculus [9] = experiment: Tested for biodistribution of radioactivity after 3h of intravenous injection in mice kidneys; assay type: ADME, organism-based, Kidney
Mus musculus [10] = experiment: Tested for biodistribution of radioactivity after 1 hr of intravenous injection in mice liver; assay type: ADME, organism-based
Mus musculus [11] = experiment: Tested for biodistribution of radioactivity after 48 hr of intravenous injection in mice intestine; assay type: ADME, organism-based
Mus musculus [12] = experiment: Tested for biodistribution of radioactivity after 24 hr of intravenous injection in mice blood; assay type: ADME, organism-based
Mus musculus [13] = experiment: Tested for biodistribution of radioactivity after 48 hr of intravenous injection in mice kidneys; assay type: ADME, organism-based
Mus musculus [14] = experiment: Tested for biodistribution of radioactivity after 1 hr of intravenous injection in mice intestine; assay type: ADME, organism-based
Mus musculus [15] = experiment: Tested for biodistribution of radioactivity after 24 hr of intravenous injection in mice spleen; assay type: ADME, organism-based
Mus musculus [16] = experiment: Tested for biodistribution of radioactivity after 48 hr of intravenous injection in mice lung; assay type: ADME, organism-based
Mus musculus [17] = experiment: Tested for biodistribution of radioactivity after 6 hr of intravenous injection in mice neck; assay type: ADME, organism-based
Mus musculus [18] = experiment: Tested for biodistribution of radioactivity after 10 min of intravenous injection in mice liver; assay type: ADME, organism-based
Mus musculus [19] = experiment: Tested for biodistribution of radioactivity after 3h of intravenous injection in mice blood; assay type: ADME, organism-based
Mus musculus [20] = experiment: Tested for biodistribution of radioactivity after 48 hr of intravenous injection in mice liver; assay type: ADME, organism-based
Mus musculus [21] = experiment: Tested for biodistribution of radioactivity after 72 hr of intravenous injection in mice blood; assay type: ADME, organism-based
Mus musculus [22] = experiment: Tested for biodistribution of radioactivity after 24 hr of intravenous injection in mice neck; assay type: ADME, organism-based
Mus musculus [23] = experiment: Tested for biodistribution of radioactivity after 3h of intravenous injection in mice neck; assay type: ADME, organism-based
Mus musculus [24] = experiment: Tested for biodistribution of radioactivity after 24 hr of intravenous injection in mice kidneys; assay type: ADME, organism-based, Kidney
Mus musculus [25] = experiment: Tested for biodistribution of radioactivity after 10 min of intravenous injection in mice intestine; assay type: ADME, organism-based
Mus musculus [26] = experiment: Tested for biodistribution of radioactivity after 72 hr of intravenous injection in mice spleen; assay type: ADME, organism-based
Mus musculus [27] = experiment: Tested for biodistribution of radioactivity after 24 hr of intravenous injection in mice liver; assay type: ADME, organism-based
Mus musculus [28] = experiment: Tested for biodistribution of radioactivity after 24 hr of intravenous injection in mice lung; assay type: ADME, organism-based
Mus musculus [29] = experiment: Tested for biodistribution of radioactivity after 10 min of intravenous injection in mice kidneys; assay type: ADME, organism-based
Mus musculus [30] = experiment: Tested for biodistribution of radioactivity after 48 hr of intravenous injection in mice spleen; assay type: ADME, organism-based
Mus musculus [31] = experiment: Tested for biodistribution of radioactivity after 6 hr of intravenous injection in mice lung; assay type: ADME, organism-based
Mus musculus [32] = experiment: Tested for biodistribution of radioactivity after 10 min of intravenous injection in mice stomach; assay type: ADME, organism-based
Mus musculus [33] = experiment: Tested for biodistribution of radioactivity after 10 min of intravenous injection in mice lung; assay type: ADME, organism-based
Mus musculus [34] = experiment: Tested for biodistribution of radioactivity after 1 hr of intravenous injection in mice blood; assay type: ADME, organism-based
Mus musculus [35] = experiment: Tested for biodistribution of radioactivity after 10 min of intravenous injection in mice spleen; assay type: ADME, organism-based
Mus musculus [36] = experiment: Tested for biodistribution of radioactivity after 24 hr of intravenous injection in mice feces; assay type: ADME, organism-based
Mus musculus [37] = experiment: Tested for biodistribution of radioactivity after 72 hr of intravenous injection in mice kidneys; assay type: ADME, organism-based
Mus musculus [38] = experiment: Tested for biodistribution of radioactivity after 10 min of intravenous injection in mice neck; assay type: ADME, organism-based
Mus musculus [39] = experiment: Tested for biodistribution of radioactivity after 72 hr of intravenous injection in mice liver; assay type: ADME, organism-based
Mus musculus [40] = experiment: Tested for biodistribution of radioactivity after 1 hr of intravenous injection in mice stomach; assay type: ADME, organism-based
Mus musculus [41] = experiment: Tested for biodistribution of radioactivity after 72 hr of intravenous injection in mice neck; assay type: ADME, organism-based
Mus musculus [42] = experiment: Tested for biodistribution of radioactivity after 6 hr of intravenous injection in mice spleen; assay type: ADME, organism-based
Mus musculus [43] = experiment: Tested for biodistribution of radioactivity after 1 hr of intravenous injection in mice kidneys; assay type: ADME, organism-based, Kidney
Mus musculus [44] = experiment: Tested for biodistribution of radioactivity after 48 hr of intravenous injection in mice blood; assay type: ADME, organism-based
Mus musculus [45] = experiment: Tested for biodistribution of radioactivity after 6 hr of intravenous injection in mice stomach; assay type: ADME, organism-based
Mus musculus [46] = experiment: Tested for biodistribution of radioactivity after 10 min of intravenous injection in mice blood; assay type: ADME, organism-based
Mus musculus [47] = experiment: Tested for biodistribution of radioactivity after 1 hr of intravenous injection in mice spleen; assay type: ADME, organism-based
Mus musculus [48] = experiment: Tested for biodistribution of radioactivity after 48 hr of intravenous injection in mice neck; assay type: ADME, organism-based
Mus musculus [49] = experiment: Tested for biodistribution of radioactivity after 72 hr of intravenous injection in mice lung; assay type: ADME, organism-based
Mus musculus [50] = experiment: Tested for biodistribution of radioactivity after 6 hr of intravenous injection in mice liver; assay type: ADME, organism-based
Mus musculus [51] = experiment: Tested for biodistribution of radioactivity after 6 hr of intravenous injection in mice intestine; assay type: ADME, organism-based
Mus musculus [52] = experiment: Tested for biodistribution of radioactivity after 1 hr of intravenous injection in mice lung; assay type: ADME, organism-based
Mus musculus [53] = experiment: Tested for biodistribution of radioactivity after 24 hr of intravenous injection in mice intestine; assay type: ADME, organism-based
Mus musculus [54] = experiment: Tested for biodistribution of radioactivity after 72 hr of intravenous injection in mice stomach; assay type: ADME, organism-based
Mus musculus [55] = experiment: Tested for biodistribution of radioactivity after 6 hr of intravenous injection in mice kidneys; assay type: ADME, organism-based, Kidney
Mus musculus [56] = experiment: Tested for biodistribution of radioactivity after 24 hr of intravenous injection in mice urine; assay type: ADME, organism-based
Mus musculus [57] = experiment: Tested for biodistribution of radioactivity after 72 hr of intravenous injection in mice intestine; assay type: ADME, organism-based
Mus musculus [58] = experiment: Tested for biodistribution of radioactivity after 3h of intravenous injection in mice intestine; assay type: ADME, organism-based

Dose/organ (Mus musculus [1]): 3.67% | Dose/organ (Mus musculus [2]): 0.2% | Dose/organ (Mus musculus [3]): 0.28% | Dose/organ (Mus musculus [4]): 8.06% | Dose/organ (Mus musculus [5]): 6.43% | Dose/organ (Mus musculus [6]): 0.75% | Dose/organ (Mus musculus [7]): 1.04% | Dose/g (Mus musculus [8]): 20.31% | Dose/organ (Mus musculus [9]): 5% | Dose/organ (Mus musculus [10]): 8.51% | Dose/organ (Mus musculus [11]): 0.4% | Dose/g (Mus musculus [12]): 9.64% | Dose/organ (Mus musculus [13]): 1.12% | Dose/organ (Mus musculus [14]): 1.96% | Dose/organ (Mus musculus [15]): 1.41% | Dose/organ (Mus musculus [16]): 1.98% | Dose/organ (Mus musculus [17]): 0.45% | Dose/organ (Mus musculus [18]): 9.81% | Dose/g (Mus musculus [19]): 25.11% | Dose/organ (Mus musculus [20]): 1.53% | Dose/g (Mus musculus [21]): 4.22% | Dose/organ (Mus musculus [22]): 0.32% | Dose/organ (Mus musculus [23]): 0.51% | Dose/organ (Mus musculus [24]): 2.08% | Dose/organ (Mus musculus [25]): 0.8% | Dose/organ (Mus musculus [26]): 0.49% | Dose/organ (Mus musculus [27]): 2.46% | Dose/organ (Mus musculus [28]): 4.06% | Dose/organ (Mus musculus [29]): 6.08% | Dose/organ (Mus musculus [30]): 0.92% | Dose/organ (Mus musculus [31]): 7.6% | Dose/organ (Mus musculus [32]): 0.54% | Dose/organ (Mus musculus [33]): 10.37% | Dose/g (Mus musculus [34]): 29.3% | Dose/organ (Mus musculus [35]): 7.15% | Dose/organ (Mus musculus [36]): 0.89% | Dose/organ (Mus musculus [37]): 0.82% | Dose/organ (Mus musculus [38]): 0.34% | Dose/organ (Mus musculus [39]): 1.05% | Dose/organ (Mus musculus [40]): 0.92% | Dose/organ (Mus musculus [41]): 0.09% | Dose/organ (Mus musculus [42]): 3.19% | Dose/organ (Mus musculus [43]): 5.35% | Dose/g (Mus musculus [44]): 5.78% | Dose/organ (Mus musculus [45]): 0.84% | Dose/organ (Mus musculus [46]): 33.64% | Dose/organ (Mus musculus [47]): 4.84% | Dose/organ (Mus musculus [48]): 0.16% | Dose/organ (Mus musculus [49]): 1.52% | Dose/organ (Mus musculus [50]): 5.39% | Dose/organ (Mus musculus [51]): 1.27% | Dose/organ (Mus musculus [52]): 7.08% | Dose/organ (Mus musculus [53]): 0.67% | Dose/organ (Mus musculus [54]): 0.14% | Dose/organ (Mus musculus [55]): 4.45% | Dose/organ (Mus musculus [56]): 23.39% | Dose/organ (Mus musculus [57]): 0.28% | Dose/organ (Mus musculus [58]): 1.93%
Structure (SMILES): N[C@@H](CSC1CC(=O)N(CCOC(=O)CNC(=O)c2cccc(I)c2)C1=O)C(=O)O (stereo partly drawn)
